Measured values published in patent US10485584B2, “Supplement for cultivation of mammalian embryos” (Lekarska fakulta v Plzni, Univerzita Karlova (Faculty of …, priority 2017, dated 2019).
Marks after values point to notes of the source that are not given here.

Assays:
Format in all cases: cell-based
[1] = test system: H3K9me2/3 and H3K9ac in pronuclear chromatin of porcine zygotes; assay: Zygote quality: methylation and acetylation of histone H3 on lysine K9 in pronuclear chromatin after IVF; settings: related to untreated vehicle, DMSO = 1, preliminary data
Procedure: (§1) After 44 h of IVM, cumulus cells were removed with 0.1% hyaluronidase in TL-HEPES-PVA and the metaphase II (MII) oocytes with extruded first polar body were selected for IVF. The oocytes were washed three-times with modified Tris-buffered medium (mTBM; Abeydeera et al. Theriogenology 50:747-756, 1998) with 0.2% bovine serum albumin (BSA; A7888; Sigma) and placed into 100 μL drops of mTBM, covered with mineral oil in a 35 mm Petri dish. The dishes were allowed to equilibrate at 38.5° C. and 5% CO2 for 30 min before spermatozoa were added for fertilization. Spermatozoa were prepared as follows: 1 mL liquid semen preserved in BTS-based extender was washed twice in phosphate buffered saline (PBS) with 0.1% PVA (PBS-PVA) at 1500 rpm for 5 min. The last wash was supplemented with MitoTracker CMTRos (400 nM; M7510, Invitrogen) for 10 min at 39° C., used to tag sperm mitochondria that associate with the paternal pronucleus inside the fertilized oocytes. Labeled spermatozoa were resuspended in mTBM ([…]) and 1 μL of this sperm suspension was added to the medium containing the oocytes to give a final sperm concentration of 2.5 or 5×10^5 spermatozoa mL^−1. Oocytes were co-incubated with spermatozoa for 5 to 6 h at 38.5° C. and 5% CO2 in air. Thereafter, oocytes were washed and transferred into 100 μL PZM3 medium (Yoshioka et al. Biol Reprod 66:112-119, 2002) containing 0.4% BSA (A6003; Sigma) for further culture for 22 h. Simultaneously, presumed zygotes were cultured in 500 μL of PZM3 medium for 144 hrs to reach blastocyst stage. PZM3 was supplemented with the object of invention, i.e. N-benzyl-3,5-dicarbethoxy-4-phenyl-1,4-dihydropyridine, diluted in DMSO. Vehicle control contained DMSO only in equal concentration (0.1%). Tested concentrations of the compound are 1.5 and 3 μM, based on preliminary experiments evaluating the range 0.3-30 μM (see Table 1).

[2] = test system: porcine oocytes and zygotes; assay: IVF results after 22 hr IVC (penetration rate, paternal pronucleus, monospermic fertilization)
Procedure: (§2) Porcine ovaries were obtained from 6- to 8-month-old non-cycling gilts (a crossbreed of Landrace x Large White) at the local slaughterhouse (Jatky Plzen a.s., Plzen, Czech Republic) and transported to laboratory at 39° C. Cumulus-oocyte complexes (COCs) were collected from ovarian follicles with a diameter of 2-5 mm by aspiration with a 20-gauge needle and handled in HEPES-buffered Tyrode lactate medium containing 0.01% (w/v) polyvinyl alcohol (TL-HEPES-PVA). Only fully grown oocytes with evenly dense cytoplasm, surrounded by compact cumuli, were selected for IVM and washed in maturation medium. The medium used for IVM was modified tissue culture medium (mTCM) 199 (Gibco, Life Technologies, UK) supplemented with 0.1% PVA, 3.05 mM D-glucose, 0.91 mM sodium pyruvate, […], 0.5 μg·mL^−1 LH (Sigma-Aldrich, USA), 0.5 μg·mL^−1 FSH (Sigma), 10 ng·mL^−1 epidermal growth factor (EGF; Sigma), 10% porcine follicular fluid, 75 μg·mL^−1 penicillin G and 50 μg·mL^−1 streptomycin. After 22 h of culture, the COCs were cultured in TCM199 without LH and FSH for an additional 22 h. The COCs were cultured in 500 μL of the medium covered by mineral oil in a four-well Petri dish (Nunc, Denmark), at 39° C. and 5% CO2 in air (Abeydeera et al. Theriogenology 50:747-756, 1998).
as §1
(§3) Within the imaging of 22 h zygotes, an assessment of penetration rate, creation of paternal pronucleus/pronuclei and monospermic fertilization was performed. Embryo cleavage was assessed by microscopy at 144 h of IVC. After 144 h of IVC, embryos were fixed in 2% formaldehyde for 40 min at room temperature (RT), washed three times with PBS, permeabilized with PBS-Triton X-100 for 30 min, and stained with 2.5 μg/mL DAPI (DNA staining; Molecular Probes, Eugene, Oreg., USA) for 40 min. Embryo cleavage, blastocyst formation, and cell number per blastocyst were assessed under an Eclipse Ci fluorescence microscope (Nikon Co., Tokyo, Japan).
(§4) Data are presented as the mean±S.E.M. of at least three independent experiments. […]

[3] = test system: porcine embryos; assay: Embryonic development and blastocyst formation after 144 hr IVC
Procedure: as §2, §1, §3, §4

[4] = 3.0 μM, 22 hr IVC, calculated from penetrated oocytes

**Q.** Which H3K9ac ([1]; 0.3 μM) does the source give for `CCOC(=O)C1=CN(Cc2ccccc2)C=C(C(=O)OCC)C1c1ccccc1` [N-benzyl-3,5-dicarbethoxy-4-phenyl-1,4-dihydropyridine] here?
**A.** The H3K9ac was 0.61.

**Q.** What about the H3K9me2/3 ([1]; 0.3 μM) of the same compound?
**A.** Its H3K9me2/3 is 2.72.

**Q.** And the H3K9ac ([1]; 3.0 μM)?
**A.** The H3K9ac was 0.63.

**Q.** What about the H3K9me2/3 ([1]; 3.0 μM) of the same compound?
**A.** The H3K9me2/3 was 1.64.

**Q.** What about the H3K9ac ([1]; 30 μM) of the same compound?
**A.** The H3K9ac was 1.36.

**Q.** And the H3K9me2/3 ([1]; 30 μM)?
**A.** Its H3K9me2/3 is 0.76.

**Q.** And the “penetrated oocytes (mean % ± SEM)” value ([2]; 3.0 μM, 22 hr IVC)?
**A.** Its value is 42.8%.

**Q.** And the “No. of monospermic fertilization” value [2, 4]?
**A.** The value was 39.

**Q.** And the “No. of oocyte with PPN” value [2, 4]?
**A.** Its value is 76.

**Q.** What about the “monospermic fertilization (mean % ± SEM)” value [2, 4] of the same compound?
**A.** Its value is 42.4 ± 10.4%.

**Q.** What about the “oocyte with PPN (mean % ± SEM)” value [2, 4] of the same compound?
**A.** Its value is 82.6 ± 6.7%.

**Q.** What about the “No. of penetrated oocytes” value ([2]; 3.0 μM, 22 hr IVC, of 215 oocytes) of the same compound?
**A.** Its value is 92.

**Q.** And the polyspermic fertilization ([2]; in the presence of compound, versus DMSO vehicle)?
**A.** The polyspermic fertilization was “higher polyspermic fertilization”.

**Q.** And the “Mean cell No. per blastocyst (mean ± SEM)” value ([3]; 1.5 μM)?
**A.** Its value is 32.7 ± 2.5^a.

**Q.** What about the No. of blastocysts ([3]; 1.5 μM) of the same compound?
**A.** The No. of blastocysts was 10.

**Q.** What about the “No. of cleaved oocytes” value ([3]; 1.5 μM) of the same compound?
**A.** Its value is 47.

**Q.** What about the “blastocysts (mean % ± SEM)” value ([3]; 1.5 μM) of the same compound?
**A.** Its value is 14.5 ± 7.2%.

**Q.** And the “cleaved oocytes (mean % ± SEM)” value ([3]; 1.5 μM)?
**A.** Its value is 70.2 ± 7.3%.

**Q.** What about the “Mean cell No. per blastocyst (mean ± SEM)” value ([3]; 3 μM) of the same compound?
**A.** Its value is 38.4 ± 4.2^a.

**Q.** And the No. of blastocysts ([3]; 3 μM)?
**A.** The No. of blastocysts was 18.

**Q.** And the “No. of cleaved oocytes” value ([3]; 3 μM)?
**A.** Its value is 44.

**Q.** And the “blastocysts (mean % ± SEM)” value ([3]; 3 μM)?
**A.** Its value is 32.9 ± 8.1%.

**Q.** And the “cleaved oocytes (mean % ± SEM)” value ([3]; 3 μM)?
**A.** Its value is 62.7 ± 7.1%.

**Q.** What about the “efficiency compared with naturally occurring polyphenols (resveratrol)” value ([3]; comparison with resveratrol) of the same compound?
**A.** Its value is “even more efficient than naturally occurring polyphenols”.

**Q.** Which “Mean cell No. per blastocyst (mean ± SEM)” value ([3]; 3 μM) does the source give for `Oc1ccc(C=Cc2cc(O)cc(O)c2)cc1` [Resveratrol, reference compound] here?
**A.** Its value is 39.3 ± 11.3^a.

**Q.** And the No. of blastocysts ([3]; 3 μM)?
**A.** The No. of blastocysts was 4.

**Q.** What about the “No. of cleaved oocytes” value ([3]; 3 μM) of the same compound?
**A.** Its value is 47.

**Q.** And the “blastocysts (mean % ± SEM)” value ([3]; 3 μM)?
**A.** The value was 6.2 ± 2.8%.

**Q.** And the “cleaved oocytes (mean % ± SEM)” value ([3]; 3 μM)?
**A.** The value was 67.7 ± 10.6%.
